According to publication PMC11845477, “Exploring the principles behind antibiotics with limited resistance” (Nature Communications, 2025):
Where a SMILES comes first, the peptide text is derived from it. Bridges are numbered along the chain shown (N, C = ends). [ ]: non-standard residue; d: D form. The star is where a group is joined. X2 = CC[C@H](C)CCCCC(=O)*; Dab = NCC[C@H](N)C(=O)O

What was measured:
[1] = test system: E. coli BW25113: pUCacrAB; test: AcrAB-TolC efflux overexpression screen, relative MIC; format: cell-based, Escherichia coli; conditions: pUCacrAB vs empty pUC118 control
Summary of the method: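 Broth microdilution in MHB (supplemented MS for SCH79797), ten-step antibiotic dilutions, 5 × 10^5 cells/mL, 18 h at 37 °C with shaking; MIC is lowest concentration giving background-corrected OD600 < 0.05. Relative MIC as log2 ratio: ΔacrB vs wild-type; pUCacrAB vs empty pUC118 (plasmid strains under 100 µg/mL ampicillin). Mean of 3 biological replicates.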

[2] = test system: A. baumannii ATCC 17978 (SEN) and A. baumannii ATCC BAA-1605 (MDR); test: Adaptive laboratory evolution (ALE), relative MIC of evolved lines; format: cell-based, Acinetobacter baumannii
Summary of the method: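 Ten parallel populations per antibiotic–ancestor pair were evolved in MHB at 37 °C, starting near 50% growth-inhibiting drug. Every 72 h they were passaged into 0.5–2.5× increasing concentrations, keeping the highest-drug well with OD600 > 0.2.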

[3] = AB-SEN (Acinetobacter baumannii ATCC 17978), evolved line 4 adapted to the named antibiotic
[4] = AB-SEN (Acinetobacter baumannii ATCC 17978), evolved line 7 adapted to the named antibiotic
[5] = AB-SEN, Acinetobacter baumannii ATCC 17978, evolved line 2 versus ancestor
[6] = AB-SEN, Acinetobacter baumannii ATCC 17978, evolved line 3 versus ancestor
[7] = AB-SEN, Acinetobacter baumannii ATCC 17978, evolved line 4 versus ancestor
[8] = AB-SEN, Acinetobacter baumannii ATCC 17978, evolved line 6 versus ancestor
[9] = AB-SEN, Acinetobacter baumannii ATCC 17978, evolved line 7 versus ancestor
[10] = AB-SEN, Acinetobacter baumannii ATCC 17978, evolved line 8 versus ancestor
[11] = AB-SEN, Acinetobacter baumannii ATCC 17978, evolved line 9 versus ancestor
[12] = AB-SEN, Acinetobacter baumannii ATCC 17978, evolved line 10 versus ancestor
[13] = AB-SEN (Acinetobacter baumannii ATCC 17978), evolved line 1
[14] = AB-SEN (Acinetobacter baumannii ATCC 17978), evolved line 1 adapted to the named antibiotic
[15] = AB-SEN (Acinetobacter baumannii ATCC 17978), evolved line 2
[16] = AB-SEN (Acinetobacter baumannii ATCC 17978), evolved line 3
[17] = AB-SEN (Acinetobacter baumannii ATCC 17978), evolved line 4
[18] = AB-SEN (Acinetobacter baumannii ATCC 17978), evolved line 6
[19] = AB-SEN (Acinetobacter baumannii ATCC 17978), evolved line 8
[20] = AB-SEN (Acinetobacter baumannii ATCC 17978), evolved line 8 adapted to the named antibiotic
[21] = AB-SEN (Acinetobacter baumannii ATCC 17978), evolved line 9
[22] = AB-SEN (Acinetobacter baumannii ATCC 17978), evolved line 10
[23] = AB-SEN, Acinetobacter baumannii ATCC 17978, evolved line 7

Row | Compound | Relative MIC (log2) ([1]; replicate 1) | Relative MIC (log2) ([1]; replicate 2) | Relative MIC (log2) ([1]; replicate 3) | Relative MIC (log10) [2, 3] | Relative MIC (log10) [2, 4] | Relative MIC [2, 5] | Relative MIC [2, 6] | Relative MIC [2, 7] | Relative MIC [2, 8] | Relative MIC [2, 9] | Relative MIC [2, 10] | Relative MIC [2, 11] | Relative MIC [2, 12] | Relative MIC [2, 13] | Relative MIC (log10) [2, 14] | Relative MIC [2, 15] | Relative MIC [2, 16] | Relative MIC [2, 17] | Relative MIC [2, 18] | Relative MIC [2, 19] | further results
1 | CNC(C)C1CCC(N)C(OC2C(N)CC(N)C(OC3OCC(C)(O)C(NC)C3O)C2O)O1 (stereo not drawn) [Gentamicin] | 0 | 0 | 0 | 2.709 | 2.709 | 512 | 256 | 512 | 256 | 512 | 128 | 128 | 512 |  |  |  |  |  |  |  | Relative MIC (log10) ([2]; AB-SEN (Acinetobacter baumannii ATCC 17978), evolved line 2 adapted to the named antibiotic): 2.709; Relative MIC (log10) ([2]; AB-SEN (Acinetobacter baumannii ATCC 17978), evolved line 5 adapted to the named antibiotic): 2.709; Relative MIC (log10) ([2]; AB-SEN (Acinetobacter baumannii ATCC 17978), evolved line 10 adapted to the named antibiotic): 2.709; Relative MIC ([2]; AB-SEN, Acinetobacter baumannii ATCC 17978, evolved line 5 versus ancestor): 512; Relative MIC ([2]; Acinetobacter baumannii ATCC 17978 (AB-SEN), evolved line 2): 512; Relative MIC ([2]; Acinetobacter baumannii ATCC 17978 (AB-SEN), evolved line 3): 256; Relative MIC ([2]; Acinetobacter baumannii ATCC 17978 (AB-SEN), evolved line 4): 512; Relative MIC ([2]; Acinetobacter baumannii ATCC 17978 (AB-SEN), evolved line 5): 512; Relative MIC ([2]; Acinetobacter baumannii ATCC 17978 (AB-SEN), evolved line 6): 256; Relative MIC ([2]; Acinetobacter baumannii ATCC 17978 (AB-SEN), evolved line 7): 512; Relative MIC ([2]; Acinetobacter baumannii ATCC 17978 (AB-SEN), evolved line 8): 128; Relative MIC ([2]; Acinetobacter baumannii ATCC 17978 (AB-SEN), evolved line 9): 128; Relative MIC ([2]; Acinetobacter baumannii ATCC 17978 (AB-SEN), evolved line 10): 512
2 | O=c1ccc2ncc(=O)n3c2n1C[C@H]3CN1CCC(NCc2cc3c(cn2)OCCC3)CC1 [Gepotidacin] | 2 | 2 | 2 | 1.806 | 1.806 | 128 | 128 | 64 | 128 | 64 | 64 | 64 | 64 | 64 | 1.806 | 128 | 128 | 64 | 128 | 64 | Relative MIC (log10) [2, 20]: 1.806; Relative MIC [2, 21]: 64; Relative MIC (log10) ([2]; AB-SEN (Acinetobacter baumannii ATCC 17978), evolved line 9 adapted to the named antibiotic): 1.806; Relative MIC [2, 22]: 64; Relative MIC ([2]; AB-SEN, Acinetobacter baumannii ATCC 17978, evolved line 1 versus ancestor): 64; Relative MIC [2, 23]: 64
3 | CN(C)c1cc(CNCC(C)(C)C)c(O)c2c1C[C@H]1C[C@H]3[C@H](N(C)C)C(O)=C(C(N)=O)C(=O)[C@@]3(O)C(O)=C1C2=O [Omadacycline] | 0.585 | 0.585 | 0.585 |  | 1.806 |  |  |  |  |  |  |  |  | 32 | 1.505 | 64 | 64 | 32 | 128 | 64 | Relative MIC (log10) ([2]; AB-SEN (Acinetobacter baumannii ATCC 17978), evolved line 3 adapted to the named antibiotic): 1.806; Relative MIC ([2]; AB-SEN (Acinetobacter baumannii ATCC 17978), evolved line 5): 128; Relative MIC (log10) ([2]; AB-SEN (Acinetobacter baumannii ATCC 17978), evolved line 6 adapted to the named antibiotic): 2.107; Relative MIC (log10) [2, 20]: 1.806; Relative MIC [2, 21]: 32; Relative MIC [2, 22]: 32; Relative MIC ([2]; AB-SEN ATCC 17978, evolved line 1, evolved line vs ancestor): 32; Relative MIC ([2]; AB-SEN ATCC 17978, evolved line 2, evolved line vs ancestor): 64; Relative MIC ([2]; AB-SEN ATCC 17978, evolved line 3, evolved line vs ancestor): 64; Relative MIC ([2]; AB-SEN ATCC 17978, evolved line 4, evolved line vs ancestor): 32; Relative MIC ([2]; AB-SEN ATCC 17978, evolved line 5, evolved line vs ancestor): 128; Relative MIC ([2]; AB-SEN ATCC 17978, evolved line 6, evolved line vs ancestor): 128; Relative MIC ([2]; AB-SEN ATCC 17978, evolved line 7, evolved line vs ancestor): 64; Relative MIC ([2]; AB-SEN ATCC 17978, evolved line 8, evolved line vs ancestor): 64; Relative MIC ([2]; AB-SEN ATCC 17978, evolved line 9, evolved line vs ancestor): 32; Relative MIC ([2]; AB-SEN ATCC 17978, evolved line 10, evolved line vs ancestor): 32; Relative MIC [2, 23]: 64
4 | CC[C@H](C)CCCCC(=O)N[C@@H](CCN)C(=O)N[C@H](C(=O)N[C@@H](CCN)C(=O)N[C@H]1CCNC(=O)[C@H]([C@@H](C)O)NC(=O)[C@H](CCN)NC(=O)[C@H](CCN)NC(=O)[C@H](CC(C)C)NC(=O)[C@@H](Cc2ccccc2)NC(=O)[C@H](CCN)NC1=O)[C@@H](C)O [Polymyxin B] (X2-[Dab]T[Dab][Dab][Dab][dF]L[Dab][Dab]T; lactam 4-C (inferred); N-terminus assumed) | 0 | 0 | 0 |  |  |  |  |  |  |  |  |  |  |  |  |  |  |  |  |  | Relative MIC (log10) ([2]; AB-MDR (Acinetobacter baumannii ATCC BAA 1605), evolved line 4): 3.0103 log10; Relative MIC (log10) ([2]; AB-MDR (Acinetobacter baumannii ATCC BAA 1605), evolved line 5): 3.0103 log10; Relative MIC (log10) ([2]; AB-MDR (Acinetobacter baumannii ATCC BAA 1605), evolved line 6): 3.0103 log10; Relative MIC (log10) ([2]; AB-MDR (Acinetobacter baumannii ATCC BAA 1605), evolved line 7): 3.0103 log10; Relative MIC (log10) ([2]; AB-MDR (Acinetobacter baumannii ATCC BAA 1605), evolved line 9): 3.0103 log10; Relative MIC (log10) [2, 13]: 2.709 log10; Relative MIC (log10) [2, 15]: 2.709 log10; Relative MIC (log10) [2, 17]: 2.709 log10; Relative MIC (log10) [2, 18]: 2.709 log10; Relative MIC (log10) [2, 21]: 2.408 log10
